Data from PMC6582051, “Identification of a natural ligand of the hazel allergen Cor a 1” (Scientific Reports, 2019).

Target: T1, Cor a 1.0401 (Corylus avellana, UniProt Q9SWR4)
T1 construct: gene CORA1.0401; tagless full-length recombinant, 160 aa, E. coli (pET11a, codon-optimised synthetic gene), 15N or 13C/15N labelled
T1 sequence (Q9SWR4 2-161 limits assumed): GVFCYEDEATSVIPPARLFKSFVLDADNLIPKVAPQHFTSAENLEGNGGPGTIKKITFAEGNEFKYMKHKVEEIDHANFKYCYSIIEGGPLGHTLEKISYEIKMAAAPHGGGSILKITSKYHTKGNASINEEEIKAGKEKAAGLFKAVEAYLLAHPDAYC
Assay: 1H, […] HSQC NMR titration
Type: binding
Conditions: 298 K, 60 uM protein, up to equimolar ligand, 2.2% DMSO; hydrophobic pocket

O=c1c(O)c(-c2ccc(O)c(O)c2)oc2cc(O)cc(O)c12 [quercetin]
1H,15N HSQC NMR titration: amino acids that were strongest affected by quercetin binding are highlighted in red
